Data: US20230248705A1, “ADMINISTRATION OF MODULATORS OF 5-HT AND / OR AMPA RECEPTORS FOR TREATING NEUROLOGICAL CONDITIONS” (THE ROYAL INSTITUTION FOR THE ADVANCEMENT OF …, priority 2020, published 2023)
“Also recorded” adds a separate entry of the source.

What was measured:
male C57BL/6J mice [1] = experiment: direct social interaction test (DSI); assay type: in vivo
Experimental: (§1) The increase in social interaction was observed 24 hours after the last injection in two validated paradigms of social behavior: the direct social interaction test (FIG. 1A) and the three-chamber test (FIG. 1B).

male C57BL/6J mice [2] = experiment: three chambers test (TCT); assay type: in vivo; settings: repeated LSD 25-35 μg/kg per day for 7 days; vs veh; FIG. 1B
Experimental: as §1

[3] = test system: glutamatergic and serotonergic neurotransmission in the medial prefrontal cortex (mPFC) and in the DRN; experiment: electrophysiological experiments in mPFC and DRN; assay type: in vivo, mice; settings: repeated regimen of LSD
[4] = test system: mammalian target of rapamycin complex (mTOR); experiment: mTOR phosphorylation in the mPFC; assay type: in vivo, mice
mice [5] = experiment: light-dark box test after chronic restraint stress; assay type: in vivo; settings: repeated LSD 30 μg/kg, FIG. 2A
Experimental: (§2) A paradigm of repeated stress-induced anxiety-like behavior was employed, in order to mimic anxious states induced by chronic stressor exposure in humans. Chronic restraint stress was chosen for its ability to reliably and relatively quickly induce anxiety-like behavior. Briefly, mice were placed in well ventilated plexiglass restrainers for 2 hours per day, for 15 days, then returned to a horizontal resting position on an open bench. During the procedure, the animals had no access to food and water. Control mice were left undisturbed in their home cage. This regimen duration was chosen given that, in pilot experiments, it represented the minimum duration of restraint stress which exacerbated anxiety-like behavior.
For the light-dark box test, an apparatus consisting of a light, open topped, opaque, plexiglass box (27×27×30 cm) connected to a dark, closed topped, opaque, plexiglass box (18×27×30 cm) was used. The light and dark boxes were connected by a small opening (12×5 cm) which allowed the mouse to cross between the two compartments. The light box was illuminated by a 100 W desk lamp. Each mouse was placed in the illuminated box and observed for 5 min. When the four paws were in the light box, the mouse was considered to be in the light compartment. […]

mice [6] = experiment: novelty suppressed feeding test after chronic restraint stress; assay type: in vivo; settings: repeated LSD 30 μg/kg; chronic restraint stress mice vs vehicle-treated stressed mice; FIG. 2B
Experimental: as §2
This procedure was used to measure neohypophagia (the anxiety-induced inhibition of feeding upon exposure to a novel environment). This test is used to validate the acute effects of putative anxiolytics. Mice were food-deprived for 48-hours; subsequently, each mouse was placed in a brightly illuminated (100 W, 350 Ix) open arena (40×40 cm, white-painted floor with walls 30 cm high), containing standard chow (3 pellets) in the center of the arena. The latency to initiate feeding (in seconds) was used as an index of anxiety-like behavior. […]

dopamine D2 receptor = dopamine D2 receptor (Homo sapiens, UniProt P14416); settings: read-out: affinity (ki), partial agonist; cited from earlier work
healthy volunteers = settings: cited from earlier work
[7] = test system: 5-HT neurons originating in the Dorsal Raphe Nucleus (DRN); settings: doses 5-30 μg/kg; mice; cited from earlier work
dopaminergic system = settings: doses 30-120 μg/kg, 60-120 μg/kg; leading to psychotic-like hallucinogenic symptoms; cited from earlier work
mice [8] = experiment: head-twitches after acute dose; settings: FIG. 3

dopamine D2 receptor, sequence (P14416 whole entry, species assumed): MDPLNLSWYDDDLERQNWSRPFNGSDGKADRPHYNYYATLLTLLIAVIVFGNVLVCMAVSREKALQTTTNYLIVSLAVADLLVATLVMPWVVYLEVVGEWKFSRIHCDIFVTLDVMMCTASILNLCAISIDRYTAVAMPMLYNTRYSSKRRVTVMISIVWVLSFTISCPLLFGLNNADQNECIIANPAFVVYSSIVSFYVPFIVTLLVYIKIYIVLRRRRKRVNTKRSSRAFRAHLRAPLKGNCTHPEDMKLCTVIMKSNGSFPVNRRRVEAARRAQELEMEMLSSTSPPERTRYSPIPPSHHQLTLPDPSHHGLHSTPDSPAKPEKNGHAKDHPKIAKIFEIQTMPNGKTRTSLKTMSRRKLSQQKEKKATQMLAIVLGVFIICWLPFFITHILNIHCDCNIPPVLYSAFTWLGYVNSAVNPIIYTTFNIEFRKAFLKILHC

CCN(CC)C(=O)[C@@H]1C=C2c3cccc4[nH]cc(c34)C[C@H]2N(C)C1 [LSD, Lysergic acid diethylamide]
social interaction (male C57BL/6J mice [1]; lower doses 5, 10 μg/kg for 3 days): non-significant increase in social interaction
social interaction / interaction time toward the unfamiliar mouse (male C57BL/6J mice [1]; repeated LSD 25-35 μg/kg per day for 7 days, 24 hours after last injection, vs veh (saline), FIG. 1A): increased social interaction; also recorded: increases interaction time
social behavior (male C57BL/6J mice [1]; single administration, FIG. 1A): did not produce any effect on social behavior
preference for social novelty / sniffing time toward a novel mouse (male C57BL/6J mice [2]): promoted the preference for the social novelty; also recorded: promotes preference for social novelty
glutamatergic and serotonergic neurotransmission [3]: potentiates both glutamatergic and serotonergic neurotransmission
phosphorylation levels of mTOR [4]: increased the phosphorylation levels
anxiety-like behavior: number of transitions between light and dark compartments (mice [5]): prevents chronic stress-induced anxiety-like behavior; also recorded: number of entries similar to the control mice treated with the vehicle; also recorded: normalized the transition between the dark and the light compartment
anxiety-like behavior: latency to feed (mice [6]): prevents chronic stress-induced anxiety-like behavior; also recorded: reduced latency to feed; also recorded: decreased latency to feed
Ki (dopamine D2 receptor): 0.025 µM
optimism, mood and trait openness (healthy volunteers; 2 weeks after LSD administration): increased optimism, mood and trait openness
mood and social effects (healthy volunteers; after 200 μg of LSD): Positive mood changes and altruistic/positive social effects
social behavior (healthy volunteers; healthy volunteers): increase social behavior
activity of 5-HT neurons [7]: decreasing the activity of 5-HT neurons
dopaminergic system activity (dopaminergic system): inhibit the dopaminergic system
hallucinogenic effects (head-twitches) (mice [8]; acute (single) dose 15 μg/kg or less): did not provide hallucinogenic effects
adverse events (hallucinations, head twitches) (mice [8]; acute (single) dose 30 μg/kg): produces adverse events
adverse events (hallucinations, head twitches) (mice [8]; acute (single) dose 60 μg/kg): produces adverse events
head twitches versus dose (mice [8]; as an acute (single) dose is increased): increase in head twitches
